According to PubChem BioAssay AID248 (DTP/NCI, 2004):
Values joined by “and” are separate entries in the source; they are usually repeats but may differ in a detail not shown here. Equal entries are not always repeated. Inconclusive results and toxic doses are left out. No stated cut-off is given here; in the data, active means T/C of 150% or more; inactive means T/C below 125%.

System: L1210 leukemia ip in BDF1 mice, survival T/C
Assay: NCI In Vivo Anticancer Drug Screen. Data for tumor model L1210 Leukemia (intraperitoneal) in B6D2F1 (BDF1) mice
Settings: endpoint: mean survival time, higher = longer survival
How it was run: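 Transplanted-tumor mice were given test agent; controls received vehicle only. Survival readings from the two groups were divided (treated over control).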

[1] = dose: 100.0 mg/kg/injection, schedule: Q01DX001 (ip), vehicle: saline
[2] = dose: 200.0 mg/kg/injection, schedule: Q01DX001 (ip), vehicle: saline
[3] = dose: 100.0 mg/kg/injection, schedule: Q04DX002 (ip), vehicle: saline with Tween-80
[4] = dose: 100.0 mg/kg/injection, schedule: Q04DX003 (ip), vehicle: saline with Tween-80
[5] = dose: 200.0 mg/kg/injection, schedule: Q04DX002 (ip), vehicle: saline with Tween-80
[6] = dose: 200.0 mg/kg/injection, schedule: Q04DX003 (ip), vehicle: saline with Tween-80
[7] = dose: 400.0 mg/kg/injection, schedule: Q04DX002 (ip), vehicle: saline with Tween-80
[8] = dose: 400.0 mg/kg/injection, schedule: Q04DX003 (ip), vehicle: saline with Tween-80
[9] = dose: 100.0 mg/kg/injection, schedule: Q01DX009 (ip), vehicle: Klucel (hydroxypropylcellulose) (HPC)
[10] = dose: 200.0 mg/kg/injection, schedule: Q01DX009 (ip), vehicle: Klucel (hydroxypropylcellulose) (HPC)

Measured: T/C

CS(C)(C)N1C(=O)c2ccccc2C1=O
inactive: dose: 87.5 mg/kg/injection, schedule: Q01DX009 (ip), vehicle: Klucel (hydroxypropylcellulose) (HPC) 98 % of control | dose: 175.0 mg/kg/injection, schedule: Q01DX009 (ip), vehicle: Klucel (hydroxypropylcellulose) (HPC) 96 % of control

O=C(O)C12C3(Cl)C4(Cl)C5(OCCO5)C5(Cl)C3(Cl)C1(Cl)C5(Cl)C42Cl (stereo unspecified)
inactive: dose: 50.0 mg/kg/injection, schedule: Q01DX001 (ip), vehicle: saline 105 % of control | [1] 102 % of control | [2] 100 % of control

OCC(O)CSc1c(Cl)c(Cl)c(Cl)c(Cl)c1Cl (stereo unspecified)
inactive: dose: 100.0 mg/kg/injection, schedule: Q01DX001 (ip), vehicle: saline with Tween-80 98 % of control and 88 % of control | [3] 95 % of control and 101 % of control | [4] 92 % of control | dose: 200.0 mg/kg/injection, schedule: Q01DX001 (ip), vehicle: saline with Tween-80 93 % of control and 95 % of control | [5] 95 % of control and 96 % of control | [6] 99 % of control | dose: 400.0 mg/kg/injection, schedule: Q01DX001 (ip), vehicle: saline with Tween-80 95 % of control and 86 % of control | [7] 97 % of control and 108 % of control | [8] 94 % of control

Cc1ccc(SC2=C(Br)C(=O)c3ccccc3C2=O)cc1
inactive: dose: 37.5 mg/kg/injection, schedule: Q01DX001 (ip), vehicle: carboxymethylcellulose (CMC) 92 % of control | dose: 75.0 mg/kg/injection, schedule: Q01DX001 (ip), vehicle: carboxymethylcellulose (CMC) 94 % of control | dose: 150.0 mg/kg/injection, schedule: Q01DX001 (ip), vehicle: carboxymethylcellulose (CMC) 103 % of control

O=[N+]([O-])c1cc2cnn(CO)c2cc1[N+](=O)[O-]
inactive: [1] 95 % of control | [2] 95 % of control | dose: 400.0 mg/kg/injection, schedule: Q01DX001 (ip), vehicle: saline 100 % of control

COC1OC(COC(=S)SCc2ccccc2)C(O)C(O)C1O (stereo unspecified)
inactive: dose: 50.0 mg/kg/injection, schedule: Q04DX002 (ip), vehicle: saline 113 % of control | dose: 100.0 mg/kg/injection, schedule: Q04DX002 (ip), vehicle: saline 110 % of control | dose: 200.0 mg/kg/injection, schedule: Q04DX002 (ip), vehicle: saline 92 % of control

CC(=O)OI(OC(C)=O)c1cccc(C)c1
inactive: [9] 96 % of control | [10] 96 % of control

O=C1c2ccccc2C(C(C/C(=N/O)c2ccccc2)c2ccccc2)c2ccccc21 (stereo unspecified)
inactive: [4] 93 % of control | [6] 93 % of control | [8] 100 % of control

Brc1ncc2ccccc2c1Br
inactive: dose: 100.0 mg/kg/injection, schedule: Q04DX003 (ip), vehicle: Klucel (hydroxypropylcellulose) (HPC) 108 % of control | dose: 200.0 mg/kg/injection, schedule: Q04DX003 (ip), vehicle: Klucel (hydroxypropylcellulose) (HPC) 94 % of control

OCn1nnc2ccccc21
inactive: [3] 103 % of control | [5] 90 % of control | [7] 106 % of control

CSc1nc(SC)c2[nH]cnc2n1
inactive: [9] 100 % of control | [10] 105 % of control | dose: 400.0 mg/kg/injection, schedule: Q01DX009 (ip), vehicle: Klucel (hydroxypropylcellulose) (HPC) 98 % of control
